The source of these data is patent publication US6037351A, “Method of inhibiting hepatitis B virus” (priority 1996, dated 2000).

For assay [1], the system named is MHBs (PreS2) antigen. The experiment in a line: ELISA of MHBs (PreS2) antigen in unfractionated culture medium of 2.2.15 cells. In kind it is cell-based, HBV. How it is done: FIG. 3D: Histogram of the area under the averaged peaks of the densitometric tracing of the gel in FIG. 3B. […] Equal volumes of the indicated samples were tested for HBV envelope antigens using the enzyme-linked imminosorbent assay (ELISA) method. Samples of unfractionated medium (FIGS. 4A, 4B and 4C) or partially purified virus (FIGS. 4D, 4E and 4F) from 3-day cultures were tested for HBV SHBs ("S) (FIGS. 4A and 4D), LHBs: "PreS1" (FIGS. 4B and 4E) or MHBs "PreS2" (FIGS. 4C and 4F) epitopes. Cultures were maintained in the indicated concentrations of NBDNJ, expressed in millimolar units and shown along the X axis.
Detection of HBV proteins by the Enzyme Linked Immunoabsorbant assay (ELISA).
Monoclonal antibodies used herein are well-known and are described by Heerman et al., J. Virol. 52, 396-402 (1984), for antibody to PreS1 (MA 18/7); Heerman et al., Intervirology 28: 14-21 (1987), for antibody to PreS2 (Q 19/10), see also Gerlich and Bruss, Molecular Biology of Hepatitis B Virus, ed. A. McLachlan, CRC Press, 109-144 (1992), and in Hepatitis B Vaccines in Clinical Practice, ed. R. W. Ellis, Marcel Dekker, Inc., pp. 41-82 (1992); and Heerman et al., in Viral Hepatitis and Liver Disease, ed. Zuckermann, A. R. Liss, 697-701 (1988), for antibody to S (C20-2).].
Samples were incubated in microtiter wells coated (overnight at 4° C.) with monoclonal antibodies specific for the LHBs, MHBs or SHBs epitopes and blocked with 1% BSA in PBS. After incubation with virus samples in for 1 hour (37° C.), plates were washed 4 times with PBS/0.1% Tween 20 non-ionic detergent.
Bound antigen was detected by incubation with peroxidase conjugated goat anti-HBs antibody (Behring) followed by development in orthophenylenediamine (0.33 mg/ml PBS-peroxide solution). Optical densities were read in a Behring plate reader. Tests on purified virus and total medium were conducted over a series of sample dilutions to insure proper quantification.
To distinguish between these possibilities, the amount and nature of envelope antigens in the culture medium was determined by both ELISA and Western analysis. […]

For assay [2], the system named is hepatitis B virus (HBV). The experiment in a line: HBV DNA from virions secreted into medium of 2.2.15 cells (Southern blot, densitometry). In kind it is cell-based, HBV in human hepatoma HepG 2.2.15 cells. Particulars: six days. How it is done: HepG 2.2.15 cells were grown for 6 days in the presence of the indicated concentration of NBDNJ with one change of medium. After the sixth day (seventh day in culture), cells and medium were collected. Autoradiograms of the viral DNA detected by hybridization of membranes to HBV probes are shown.
FIG. 2A: autoradiogram of a Southern blot of DNA recovered from the medium of 2.2.15 cells maintained in medium without NBDNJ (lanes 1 and 2); and in the following NBDNJ concentrations: 200 μg/ml (lane 3); 500 μg/ml (lane 4); and 1000 μg/ml (lane 5).
HepG2 cells were purchased from the European Collection of Animal Cell Cultures (Porton Down, UK). HepG2 2.15 [2.2.15, Sells and Chen, Proc. Natl. Acad. Sci. USA 84, 1005-1009 (1987)] cells were obtained from Dr. George Acs (Mt. Sinai Medical College, New York, USA).
All tissue cultures were maintained in 5% C02 in RPMI 1640 (GIBCO) medium, supplemented with 10% heat inactivated fetal calf serum (Techgen, London, U.K.), 50 units/ml. of penicillin and streptomycin, 1 mM glutamine (GIBCO). For 2.2.15 cells, 200 μgs/ml. Antibiotic G418 (Genticin, GIBCO) was added to the medium, as in Sells and Chen, Proc. Natl. Acad. Sci. USA 84, 1005-1009 (1987).
Medium from approximately 5×10^6 cells was precipitated with polyethylene glycol (PEG) 8000 (Sigma), after clarification, as in Sells and Chen, Proc. Natl. Acad. Sci. USA 84, 1005-1009 (1987), re-suspended in 0.5 ml. phosphate buffered saline (PBS) and sedimented through a cushion of 20% sucrose in PBS for 5 hours at 50,000 rpm in a Beckman T100.3 rotor (approx. 75,000×g).
DNA was prepared from the pellets as in Sells and Chen, Proc. Natl. Acad. Sci. USA 84, 1005-1009 (1987). […]

Assay [3] concerns hepatitis B virus (HBV). The assay can be described thus: Secretion of HBV particles from HepG 2.2.15 and HBV infected HepG2 cells. In kind it is cell-based, HBV in human hepatoma cells.
Assay [4] has as its system α-glucosidase I. Particulars: N-linked oligosaccharide processing enzyme; cited from earlier work.
The mark [5] stands for this setting: stably transfected HepG 2.2.15 cells and HBV infected HepG2 cells.

For `CCCCN1C[C@H](O)[C@@H](O)[C@H](O)[C@H]1CO` [NBDNJ, N-butyl-1,5-dideoxy-1,5-imino-D-glucitol], the “decrease in the amount of MHBs antigen in medium (in words)” value in assay [1] (1000 μg/ml NBDNJ, 2.2.15 cells) is reported as “two-fold decrease”. The “decrease in total amount of MHBs (PreS2) antigen in medium” value in assay [1] (highest NBDNJ concentration, 4.5 mM or approximately 1000 μg/ml) is “approximately 2.5 fold”. Besides, the “total amount of MHBs (PreS2) antigen in medium (in words)” value in assay [1] (unfractionated medium, 2.2.15 cells) is recorded as “modest, dose-dependentdecrease”. In addition, the inhibition at 500 µg/mL in assay [2] (Hepatitis B virus, 144 h, NBDNJ 500 μg/ml (2.28 mM), densitometry of FIG. 2A, read-out: decrease in virus specific DNA in medium) was 90%. For the same molecule, the inhibition at 1000 µg/mL in assay [2] (Hepatitis B virus, 144 h, NBDNJ 1000 μg/ml, densitometry of FIG. 2A, read-out: decrease in virus specific DNA in medium) was determined as 99%. Further, the “virus specific DNA obtained from the media of treated cells (in words)” value in assay [2] (NBDNJ 200, 500, 1000 μg/ml) is listed as “clear dose-dependent decrease”. Also, in assay [3] (relative to small SHBs enriched particles), the “sensitivity of HBV virions and particles containing LHBs and MHBs vs SHBs enriched particles” value is reported as “more sensitive”. For the same molecule, in assay [3] (setting [5]), the “intracellular retention of HBV DNA (in words)” value was “cause intracellular retention of HBV DNA” and the “secretion of HBV particles (in words)” value is on record as “suppress the secretion of HBV particles”. In addition, the “inhibition of α-glucosidase I (in words)” value in assay [4] is listed as “potent inhibitor”.
